Assay results reported in patent US8940766B2, “Methods for preventing and/or treating lysosomal storage disorders” (Amicus Therapeutics, Inc., priority 2009, dated 2015).
Where “and” joins values, the source holds several entries; their conditions need not be identical. Equal entries are not always repeated.

What was measured:
[1] = Blood brain barrier penetration after oral administration to mice; type: in vivo, mice (C57BL/6); conditions: single 30 mg/kg (free base equivalent) p.o. dose, FIGS. 1A-C
Method: For this purpose, 8-week old wild-type male mice (C57BL/6) were administered a single 30 mg/kg (free base equivalent) p.o. dose of reference or test compound by gavage (n=3 mice per time point). Dosing solutions were prepared in water. After dosing, mice were euthanized with CO2 at the following time points: 0-, 0.5-, 1-, and 4-hour post-dose. […] Similarly, brains were collected from each mouse. Plasma was derived by spinning whole blood at 2700 g for 10 minutes at 4° C. followed by storage on dry ice. Whole brains were washed in cold PBS to remove contaminating blood, blotted dry, flash frozen on dry ice, and ultimately stored at −80° C. until analysis. To prepare brain samples for analysis, 50-100 mg of tissue was homogenized in […]. Samples were then clarified by centrifugation. Next, 25 μl of the brain homogenate supernatant or 25 μl of plasma were combined with 25 μl of acetonitrile:water (95/5). […] Between 20 and 30 μl sample was injected for analysis. […] When Compound B was analyzed, Compound A was used as internal standard (150.1/130.1). For calculating drug concentrations, raw data for plasma (ng/mL) and brain (ng/g) was converted to nM using the molecular weight of respective compounds and assuming 1 g of tissue is equivalent to 1 mL volume. Concentration as a function of time was plotted in GraphPad Prism version 4.02.

GCase [2] = target: T1, GCase (Mus musculus, UniProt P17439); assay: GCase enhancement in tissues of orally dosed mice; type: in vivo, mice (C57BL/6); conditions: for GCase increase: nine doses over 2 weeks, 24-hour washout
T1 construct: Liver, spleen, lung, and brain tissues were removed; from tissue; host or cells: brain, spleen, liver, lung of C57BL/6 mice
T1 sequence (P17439 20-515): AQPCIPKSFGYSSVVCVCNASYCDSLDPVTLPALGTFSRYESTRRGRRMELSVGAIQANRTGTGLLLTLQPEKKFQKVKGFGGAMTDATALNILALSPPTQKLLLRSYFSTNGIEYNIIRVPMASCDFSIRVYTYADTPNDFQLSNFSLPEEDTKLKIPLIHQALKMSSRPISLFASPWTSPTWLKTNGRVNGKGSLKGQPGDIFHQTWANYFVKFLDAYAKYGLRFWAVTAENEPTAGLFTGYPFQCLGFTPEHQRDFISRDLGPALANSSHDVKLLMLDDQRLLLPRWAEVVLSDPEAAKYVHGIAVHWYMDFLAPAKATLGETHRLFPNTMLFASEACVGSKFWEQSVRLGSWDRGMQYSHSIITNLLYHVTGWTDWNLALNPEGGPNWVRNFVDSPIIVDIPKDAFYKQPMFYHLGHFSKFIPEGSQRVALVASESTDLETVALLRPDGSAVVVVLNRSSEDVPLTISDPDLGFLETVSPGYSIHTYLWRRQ
Method: (§1) The ability of orally administered test compounds (the hydrochloride salt form of Compound A and Compound B) to elevate GCase levels as compared to reference compound, IFG-tartrate, was assessed in mice. […] Seven animals were used per dose. The dosing solutions were prepared in water. Compounds were administered over 2 weeks as follows: week 1, Mon-Fri (On), Sat-Sun (Off); week 2, Mon-Thu (On); necropsy on Friday. Thus, a total of 9 doses (dosing solutions prepared fresh every day) were given to each mouse, with a 24-hour washout between the last dose and necropsy.
(§2) Plasma was collected by spinning blood at 2700 g for 10 minutes at 4° C. Liver, spleen, lung, and brain tissues were removed, washed in cold PBS, blotted dry, flash frozen on dry ice, and stored at −80° C. until analysis. GCase levels were measured by homogenizing approximately 50 mg tissue in 500 μL McIlvane (MI) buffer (100 mM sodium citrate, 200 mM sodium phosphate dibasic, 0.25% sodium taurocholate, and 0.1% Triton X-100, pH 5.2) at pH 5.2 for 3-5 seconds on ice with a micro homogenizer. Homogenates were then incubated at room temperature without and with 2.5 mM conduritol-B-epoxide (CBE) for 30 min. Finally, 3.7 mM 4-methylumbeliferryl-β-glucoside (4-MUG) substrate was added and incubated at 37° C. for 60 min. Reactions were stopped by addition of 0.4 M glycine, pH 10.6. Fluorescence was measured on a plate reader for 1 sec/well using 355 nm excitation and 460 nm emission. Total protein was determined in lysates using the MicroBCA kit according to the manufacturer's instructions. A 4-methylumbelliferone (4-MU) standard curve ranging from 1.0 nM to 50 μM was run in parallel for conversion of raw fluorescence data to absolute GCase activity (in the presence and absence of CBE) and expressed as nanomoles of 4-MU released per milligram of protein per hour (nmol/mg protein/hr). GCase levels and protein levels were calculated using Microsoft Excel (Redmond, Wash.) and GraphPad Prism version 4.02.

[3] = Compound concentration in brain, spleen and plasma samples of GCase enhancement study; type: in vivo, mice (C57BL/6); conditions: nine doses; for Concentration: 24 hours after last dose
Method: as §1, §2

lysosomal GCase = target: T2, lysosomal GCase (Homo sapiens, UniProt P04062); assay: In situ washout assay in fibroblasts (recovery of lysosomal GCase activity after compound removal); type: cell-based; conditions: fibroblasts treated at IC90 for 16-24 hours, then drug-free medium; single exponential fit
T2 construct: assayed in situ using fibroblasts established from a normal subject; endogenous in cells; host or cells: fibroblasts from a normal subject
T2 sequence (P04062 40-536): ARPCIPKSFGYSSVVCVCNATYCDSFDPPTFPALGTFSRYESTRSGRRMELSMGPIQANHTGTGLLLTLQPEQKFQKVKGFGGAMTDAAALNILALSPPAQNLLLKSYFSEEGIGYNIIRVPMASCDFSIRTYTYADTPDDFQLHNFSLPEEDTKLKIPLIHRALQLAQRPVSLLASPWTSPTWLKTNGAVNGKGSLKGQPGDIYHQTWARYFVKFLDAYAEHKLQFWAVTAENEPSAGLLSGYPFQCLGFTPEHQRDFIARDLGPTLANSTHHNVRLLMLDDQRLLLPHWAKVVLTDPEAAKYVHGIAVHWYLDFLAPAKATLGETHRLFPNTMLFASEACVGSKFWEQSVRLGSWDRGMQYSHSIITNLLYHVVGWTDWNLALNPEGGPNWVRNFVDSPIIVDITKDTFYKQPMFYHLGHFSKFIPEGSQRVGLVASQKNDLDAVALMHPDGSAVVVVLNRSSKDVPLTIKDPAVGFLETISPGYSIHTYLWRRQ
Method: Cells seeded in 48-well plates were incubated with the indicated concentrations of compound for 16-24 hours. For the dose-response assays, cells were incubated with the in situ substrate 5-(pentafluorobenzoylamino)fluorescein di-β-D-glucopyranoside (PFBFDβGlu) for 1 hour and subsequently lysed to determine the extent of substrate hydrolysis in the presence of compound. […] Inhibition was determined as the ratio of activity in the presence of compound to that in the absence of compound. […] Cells were washed extensively and incubated in drug-free medium to allow net compound efflux from cells. Cells were then tested for lysosomal GCase activity at 2 hour intervals over a total period of 8 hours following compound removal. The increase in activity over time was fitted with a single exponential function to determine the compound's washout time.

GCase [4] = target: T3, GCase (Homo sapiens, UniProt P04062); assay: Concentration-dependent increase in GCase activity (EC50, Emax); type: cell-based; conditions: result in words
T3 sequence (P04062 40-536): T2 sequence (P04062 40-536)

[5] = brain, 10 mg/kg (free base equivalent) p.o.
[6] = spleen, 10 mg/kg (free base equivalent) p.o.
[7] = mice, nine p.o. doses over 2 weeks, result in words

For `O[C@@H]1[C@H](CF)CNC[C@H]1O` [Compound A, (3R,4R,5R)-5-(fluoromethyl)piperidine-3,4-diol], the “blood brain barrier crossing compared to IFG” value [1] was “crossed the blood brain barrier more readily as compared to IFG”, the GCase increase (GCase [2]; [5]) was 2.5 -fold and the GCase increase (GCase [2]; brain, 100 mg/kg (free base equivalent) p.o.) was 3.5 -fold. The GCase increase (GCase [2]; [6]) was 1.9 -fold, the GCase increase (GCase [2]; spleen, 100 mg/kg (free base equivalent) p.o.) was 2.8 -fold and the “Concentration in GCase assays after dilution (value in parenthesis)” value (shortened to “Concentration in GCase assays”) ([3]; brain sample, 10 mg/kg p.o.) was 0.5 nM. The “Concentration in GCase assays” value ([3]; brain sample, 100 mg/kg p.o.) was 3 nM, the “Concentration in GCase assays” value ([3]; spleen sample, 10 mg/kg p.o.) was 0.3 nM and the “Concentration in GCase assays” value ([3]; spleen sample, 100 mg/kg p.o.) was 1.1 nM.

With `Cl.O[C@@H]1[C@H](CF)CNC[C@H]1O` [Compound A-HCl, (3R,4R,5R)-5-(fluoromethyl)piperidine-3,4-diol hydrochloride] the “In Situ Washout” value (lysosomal GCase) was 6.6 ± 0.12 h, the “effect on GCase activity” value (GCase [4]) was “concentration-dependent increase in GCase activity” and the “enhancement of enzyme activity compared to IFG-tartrate” value (GCase [4]) was “enhanced enzyme activity to the same maximum level at much lower concentration”. For the same molecule, the “GCase enhancement at lower doses compared to IFG-tartrate” value (GCase [2]; [7]) was “unexpectedly greater than that observed with IFG-tartrate even when far lower doses”, the “GCase enhancement in brain, spleen, liver and lung compared to control or IFG-tartrate” value (GCase [2]; [7]) was “statistically significant greater GCase enhancement in brain, spleen, liver and lung as compared to mice administered control or IFG-tartrate” and the melting point was 200 to 202 °C.

For `OC[C@H]1CNC[C@@H](O)[C@@H]1O` [IFG, (3R,4R,5R)-5-(hydroxymethyl)-3,4-piperidinediol], the GCase increase (GCase [2]; [5]) was 1.5 -fold, the GCase increase (GCase [2]; brain, 100 mg/kg (free base equivalent) p.o., 100 mg/kg) was 2.2 -fold and 2.1 -fold and the GCase increase (GCase [2]; [6]) was 1.6 -fold. The GCase increase (GCase [2]; spleen, 100 mg/kg (free base equivalent) p.o., 100 mg/kg) was 1.9 -fold and 2.0 -fold, the “Concentration in GCase assays” value ([3]; brain sample, 10 mg/kg p.o.) was 0.2 nM and the “Concentration in GCase assays” value ([3]; brain sample, 100 mg/kg p.o., 100 mg/kg) was 0.7 nM and 1.1 nM. The Concentration ([3]; brain, 10 mg/kg p.o.) was 49 ± 2.4 nM, the Concentration ([3]; brain, 100 mg/kg p.o., 100 mg/kg) was 182 ± 13 nM and 287 ± 74 nM and the Concentration ([3]; plasma, 10 mg/kg p.o.) was 67 ± 10 nM. For the same molecule, the “Concentration in GCase assays” value ([3]; spleen sample, 10 mg/kg p.o.) was 0.5 nM, the “Concentration in GCase assays” value ([3]; spleen sample, 100 mg/kg p.o., 100 mg/kg) was 2.6 nM and 4.2 nM and the Concentration ([3]; spleen, 10 mg/kg p.o.) was 150 ± 12 nM. For the same molecule, the Concentration ([3]; spleen, 100 mg/kg p.o., 100 mg/kg) was 711 ± 100 nM and 1139 ± 220 nM.
